Patent US5789431A, “Naphthoquinone antitumor compound and method” (The University of North Carolina at Chapel Hill, priority 1996, dated 1998)
Like-named read-outs stand apart in the source and are kept apart here.

Tests used:
human tumor cell lines = format: cell-based; conditions: for GI50: Homo sapiens
MALME-3M = assay: in vitro melanoma cell growth inhibition (NCI screen)
UACC-257 = assay: as above
UACC-62 = assay: as above
CCRF-CEM = assay: in vitro leukemia cell growth inhibition (NCI screen)
HL-60(TB) = assay: as above
K-562 = assay: as above
MOLT-4 = assay: as above
U 251 = assay: in vitro CNS cancer cell growth inhibition (NCI screen)
HCT-116 = assay: in vitro colon cancer cell growth inhibition (NCI screen)
HCT-15 = assay: as above
SW 620 = assay: as above
ACHN = assay: in vitro renal cancer cell growth inhibition (NCI screen)
RXF-393 = assay: as above
IGROV1 = assay: in vitro ovarian cancer cell growth inhibition (NCI screen)
T-47D = assay: in vitro breast cancer cell growth inhibition (NCI screen)
PC-3 = assay: in vitro prostate cancer cell growth inhibition (NCI screen)
HOP-92 = assay: in vitro non-small cell lung cancer cell growth inhibition (NCI screen)
NCI-H266 = assay: as above
NCI-H522 = assay: as above
LOX1MVI = assay: in vitro melanoma cell growth inhibition (NCI screen)
SR = assay: in vitro leukemia cell growth inhibition (NCI screen)
SF-268 = assay: in vitro CNS cancer cell growth inhibition (NCI screen)
SF-539 = assay: as above
DLD-1 = assay: in vitro colon cancer cell growth inhibition (NCI screen)
HT 29 = assay: as above
KM 12 = assay: as above
786-0 = assay: in vitro renal cancer cell growth inhibition (NCI screen)
NCI-H460 = assay: in vitro non-small cell lung cancer cell growth inhibition (NCI screen)
LXFL 529 = assay: as above
M14 = assay: in vitro melanoma cell growth inhibition (NCI screen)
OVCAR-3 = assay: in vitro ovarian cancer cell growth inhibition (NCI screen)
SK-OV-3 = assay: as above
OVCAR-8 = assay: as above
M19-MEL = assay: in vitro melanoma cell growth inhibition (NCI screen)
SK-MEL-5 = assay: as above
NCI-H23 = assay: in vitro non-small cell lung cancer cell growth inhibition (NCI screen)
SK-MEL-2 = assay: in vitro melanoma cell growth inhibition (NCI screen)
SK-MEL-28 = assay: as above
XF-498 = assay: in vitro CNS cancer cell growth inhibition (NCI screen)
COLO-205 = assay: in vitro colon cancer cell growth inhibition (NCI screen)
UO-31 = assay: in vitro renal cancer cell growth inhibition (NCI screen)
SNB-75 = assay: in vitro CNS cancer cell growth inhibition (NCI screen)
TK-10 = assay: in vitro renal cancer cell growth inhibition (NCI screen)
RPMI-8226 = assay: in vitro leukemia cell growth inhibition (NCI screen)
OVCAR-4 = assay: in vitro ovarian cancer cell growth inhibition (NCI screen); conditions: OVACR-4
MCF-7 = assay: in vitro breast cancer cell growth inhibition (NCI screen)
MDA-N = assay: as above
[1] = cancer cell panel, general / most cell lines, read-out: logGI50 values in the cancer cell line panel (converted)
[2] = non-small cell lung, CNS, melanoma, colon, leukemia, small cell lung, and renal cancer cell lines, read-out: logGI50 values (range over cell lines) (converted)

SMILES	cytotoxicity log GI50 (MALME-3M) [M]	cytotoxicity log GI50 (UACC-257) [M]	cytotoxicity log GI50 (UACC-62) [M]	cytotoxicity log GI50 (CCRF-CEM) [M]	cytotoxicity log GI50 (HL-60(TB)) [M]	cytotoxicity log GI50 (K-562) [M]	cytotoxicity log GI50 (MOLT-4) [M]	cytotoxicity log GI50 (U 251) [M]	cytotoxicity log GI50 (HCT-116) [M]	cytotoxicity log GI50 (HCT-15) [M]	cytotoxicity log GI50 (RXF-393) [M]	cytotoxicity log GI50 (NCI-H522) [M]	GI50 (human tumor cell lines; [2]) [µM]	cytotoxicity log GI50 (LOX1MVI) [M]	cytotoxicity log GI50 (SR) [M]	cytotoxicity log GI50 (SF-268) [M]	cytotoxicity log GI50 (SF-539) [M]	cytotoxicity log GI50 (HT 29) [M]	cytotoxicity log GI50 (786-0) [M]	cytotoxicity log GI50 (NCI-H460) [M]	other results
O=C(NC1=C(Cl)C(=O)c2ccccc2C1=O)c1ccc(F)cc1 [Compound 2f]	-5.82	-5.71	-6.55	-6.10	-6.47	-6.04	-5.65	-5.73	-6.34	-6.27	-5.90	-6.34	–	–	–	–	–	–	–	–	GI50 (human tumor cell lines; [1]): ~1 µM; cytotoxicity log GI50 (SW 620): -6.11 M; cytotoxicity log GI50 (ACHN): -6.03 M; cytotoxicity log GI50 (IGROV1): -5.77 M; cytotoxicity log GI50 (T-47D): -5.72 M; cytotoxicity log GI50 (PC-3): -5.95 M; cytotoxicity log GI50 (HOP-92): -5.79 M; cytotoxicity log GI50 (NCI-H266): -5.96 M
COc1ccc(Cn2c(C)nc3c2C(=O)c2ccccc2C3=O)cc1 [Compound 18]	–	–	-5.34	-5.39	-5.38	-5.49	-5.59	-5.20	-5.43	-5.76	–	-5.22	1 to 10	-5.60	-5.84	-5.35	-5.42	-5.31	-5.27	-5.62	cytotoxicity log GI50 (DLD-1): -5.33 M; cytotoxicity log GI50 (KM 12): -5.27 M; cytotoxicity log GI50 (LXFL 529): -5.37 M
CCn1c(-c2ccc(F)cc2)nc2c1C(=O)c1ccccc1C2=O [Compound 26]	-4.35	–	–	–	–	–	–	–	–	–	-4.27	–	–	–	–	–	–	–	–	–	GI50 (human tumor cell lines; [1]): ~10 µM; cytotoxicity log GI50 (M14): -4.15 M; cytotoxicity log GI50 (OVCAR-3): -4.47 M; cytotoxicity log GI50 (SK-OV-3): -4.68 M
Cc1ccc(Cn2c(C)nc3c2C(=O)c2ccccc2C3=O)cc1 [Compound 17]	–	–	-5.95	-5.70	-5.72	-6.08	-6.19	-5.73	-6.12	-6.21	–	-5.50	1 to 10	-6.22	-6.48	-5.46	-5.88	-5.90	-5.66	-6.41	cytotoxicity against tumor cells (in words) (human tumor cell lines; cancer cell line panel): highly active against many of the cancer cell types tested; cytotoxicity log GI50 (DLD-1): -5.91 M; cytotoxicity log GI50 (SW 620): -5.48 M; cytotoxicity log GI50 (OVCAR-8): -5.52 M; cytotoxicity log GI50 (LXFL 529): -5.76 M
Cc1nc2c(n1Cc1ccc(F)cc1)C(=O)c1ccccc1C2=O [Compound 19]	-5.05	–	-5.28	-4.98	-5.26	-5.25	-5.27	-5.18	-5.16	-5.37	-4.83	-4.97	1 to 10	-5.14	-5.37	-5.34	-5.16	-5.03	-4.88	-5.39	cytotoxicity log GI50 (M19-MEL): -5.44 M; cytotoxicity log GI50 (SK-MEL-5): -4.99 M; cytotoxicity log GI50 (OVCAR-3): -4.82 M; cytotoxicity log GI50 (NCI-H23): -4.88 M; cytotoxicity log GI50 (LXFL 529): -4.87 M
CC(=O)NC1=C(NCc2ccc(Cl)cc2)C(=O)c2ccccc2C1=O [Compound 42]	–	-5.21	-5.58	–	-5.86	-5.61	-5.62	–	-5.51	-5.25	-5.37	-6.01	–	–	–	–	-5.36	–	–	–	cytotoxicity log GI50 (M19-MEL): -5.28 M; cytotoxicity log GI50 (SK-MEL-2): -5.25 M; cytotoxicity log GI50 (SK-MEL-28): -5.26 M; cytotoxicity log GI50 (SK-MEL-5): -5.26 M; cytotoxicity log GI50 (XF-498): -5.84 M; cytotoxicity log GI50 (COLO-205): -5.27 M; cytotoxicity log GI50 (ACHN): -5.74 M; cytotoxicity log GI50 (UO-31): -5.29 M
CCC(c1ccccc1F)c1nc2c(n1CC)C(=O)c1ccccc1C2=O (centres unmarked) [Compound 64]	–	–	–	–	–	–	-4.62	-5.07	–	–	-5.53	–	–	–	–	–	–	–	–	–	cytotoxicity log GI50 (SNB-75): -4.60 M; cytotoxicity log GI50 (TK-10): -5.49 M
O=C(O)CCCc1nc2c(n1-c1ccccc1)C(=O)c1ccccc1C2=O [Compound 58]	-4.67	-4.48	-4.48	-4.39	-4.43	–	–	–	-4.31	–	–	-4.85	–	–	–	-4.42	–	–	–	–	cytotoxicity log GI50 (M14): -4.72 M; cytotoxicity log GI50 (RPMI-8226): -4.39 M; cytotoxicity log GI50 (SNB-75): -4.36 M; cytotoxicity log GI50 (KM 12): -4.50 M; cytotoxicity log GI50 (OVCAR-3): -4.47 M; cytotoxicity log GI50 (OVCAR-4): -4.62 M; cytotoxicity log GI50 (MCF-7): -4.49 M; cytotoxicity log GI50 (MDA-N): -4.36 M
